In patent publication US4217274A, “Methoxyethoxymethyl esters of penicillins” (Bristol-Myers Company, priority 1978, dated 1980) one finds MIC data, which are given here for 2 compounds.

For orientation: MIC means the lowest concentration that inhibits growth of the organism.

Structures are written as SMILES. In brackets after ≈: the same amount, converted by molar mass. Like-named read-outs stand apart in the source and are kept apart here.

Holding throughout (assay): MIC, antibiotic dilution technique (agar)
One experiment has as its system Str. pyogenes. The experiment is classed as cell-based, S. pyogenes. The settings on record: Streptococcus pyogenes. The source says:
(§1) Bacteria. The organisms, preponderantly of recent clinical origin, were obtained from numerous sources of broad geographical distribution. Obligate anaerobes were maintained in Egg Meat Medium (Difco); Mycobacterium was stored on Lowenstein Medium (Jensen Modification; Difco). The techniques of storing all other organisms have been described previously [Leitner et al., BL-S640, A Cephalosporin with a Broad Spectrum of Antibacterial Activity: Properties in vitro, Antimicrob. Agents Chemother., 7, 298-305 (1975)].
(§2) Antibiotic spectrum. The growth-inhibitory activity of the compounds was determined by the antibiotic dilution technique. Procedures were as follows:
(§3) Aerobic organisms (excluding Mycobacterium). Except for Haemophilus and Neisseria, the assay was performed in Mueller-Hinton Medium (Difco). For fastidious organisms, i.e., Streptococcus, Listeria, Pasteurella, Bordetella and Vibrio, the medium was supplemented with 4% defibrinated sheep blood. The antibiotic susceptibility of Haemophilus and Neisseria was determined in GC Medium Base (BBL) supplemented with 1% Hemoglobin (BBL) and 1% Isovitalex (BBL).
(§4) Overnight broth cultures of an exponentially growing culture (Neisseria) served as the source of inoculum. A volume of approximately 0.003 ml. of the undiluted or diluted culture was applied to the surface of the antibiotic-containing agar plates with the inoculator of Steers et al., An Inocula Replicating Apparatus for Routine Testing of Bacterial Susceptibility to Antibiotics, Antibiot. Chemother., 9, 307-311, (1959). Cultures of Neisseria, Streptococcus pneumoniae, S. viridans and S. pyogenes were used without dilution; those of all other organisms were diluted 100-fold. The inoculum contained about 10^3 viable cells for Neisseria, 10^5 for S. pneumoniae and S. pyogenes, 10^6 for S. viridans and 10^4 for all other species.

In a further experiment the test system is E. Coli. Format: cell-based. As to conditions: Escherichia coli.
Excerpt: as §1, §2, §3, §4

The subject of a further experiment is Ent. cloacae. The experiment is classed as cell-based. The settings on record: Enterobacter cloacae, read-out: MIC.
Excerpt: as §1, §2, §3, §4

In the next experiment the test system is K. pneumoniae. The experiment is classed as cell-based. The settings on record: Klebsiella pneumoniae, read-out: MIC.
Excerpt: as §1, §2, §3, §4

The test system of another experiment is Pr. mirabilis. The experiment is classed as cell-based. As to conditions: Proteus mirabilis.
Excerpt: as §1, §2, §3, §4

A further experiment relates to Pr. morganii. The experiment is classed as cell-based. As to conditions: Morganella morganii, read-out: MIC.
Excerpt: as §1, §2, §3, §4

In the next experiment the test system is Pr. rettgeri. Format: cell-based. As to conditions: Providencia rettgeri.
Excerpt: as §1, §2, §3, §4

In the next experiment the test system is Pr. vulgaris. The experiment is classed as cell-based. The settings on record: Proteus vulgaris.
Excerpt: as §1, §2, §3, §4

The next experiment deals with Ps. aeruginosa. The experiment is classed as cell-based. As to conditions: Pseudomonas aeruginosa, read-out: MIC.
Excerpt: as §1, §2, §3, §4

A further experiment relates to S. aureus Meth-Res. Format: cell-based. The settings on record: Staphylococcus aureus.
Excerpt: as §1, §2, §3, §4

The next experiment has as its system S. aureus Pen-Res. Format: cell-based. The settings on record: Staphylococcus aureus, read-out: MIC.
Excerpt: as §1, §2, §3, §4

In the next experiment the test system is S. aureus. The experiment is classed as cell-based. As to conditions: Staphylococcus aureus.
Excerpt: as §1, §2, §3, §4

For the next experiment, the system named is Ser. marcescens. The experiment is classed as cell-based. As to conditions: Serratia marcescens.
Excerpt: as §1, §2, §3, §4

For a further experiment, the system named is Str. faecalis. Format: cell-based. As to conditions: Enterococcus faecalis.
Excerpt: as §1, §2, §3, §4

The subject of the next experiment is Str. pneumoniae. The experiment is classed as cell-based. As to conditions: Streptococcus pneumoniae.
Excerpt: as §1, §2, §3, §4

Turning to `COCCOCOC(=O)[C@@H]1N2C(=O)[C@@H](N3C(=O)[C@@H](c4ccc(O)cc4)NC3(C)C)[C@H]2SC1(C)C` [RN-1493, Methoxyethoxymethyl Ester of Heta-Amoxicillin], the minimal inhibitory concentration (MIC) against Str. pyogenes (Table 2, Str. pyogenes) was 0.008 µg/mL (≈ 0.0162 µM); in the experiment on E. Coli (Table 2, E. coli, first line), 2 µg/mL (≈ 4.05 µM); in the experiment with E. Coli (Table 2, E. coli, second line), 63 µg/mL (≈ 128 µM); with Ent. cloacae (Table 2, Ent. cloacae, first line) it was 63 µg/mL (≈ 128 µM); in the experiment on Ent. cloacae (Table 2, Ent. cloacae, second line) it was 63 µg/mL (≈ 128 µM); with K. pneumoniae (Table 2, K. pneumoniae, first line) it was 63 µg/mL (≈ 128 µM). The MIC in the experiment on K. pneumoniae (Table 2, K. pneumoniae, second line) worked out at 63 µg/mL (≈ 128 µM); against Pr. mirabilis (Table 2, Pr. mirabilis), 0.5 µg/mL (≈ 1.01 µM); in the experiment with Pr. morganii (Table 2, Pr. morganii) it was 16 µg/mL (≈ 32.4 µM); with Pr. rettgeri (Table 2, Pr. rettgeri), 32 µg/mL (≈ 64.8 µM); with Pr. vulgaris (Table 2, Pr. vulgaris), 0.5 µg/mL (≈ 1.01 µM); with Ps. aeruginosa (Table 2, Ps. aeruginosa, first line) it was 63 µg/mL (≈ 128 µM). Moreover, the MIC with Ps. aeruginosa (Table 2, Ps. aeruginosa, second line) is 63 µg/mL (≈ 128 µM); against S. aureus Meth-Res. (Table 2, S. aureus Meth-Res.), 63 µg/mL (≈ 128 µM); with S. aureus Pen-Res. (Table 2, S. aureus Pen-Res.), 125 µg/mL (≈ 253 µM); against S. aureus (Table 2, S. aureus), 0.06 µg/mL (≈ 0.122 µM); in the experiment on S. aureus (Table 2, S. aureus + 50% serum) it was 0.25 µg/mL; in the experiment with Ser. marcescens (Table 2, Ser. marcescens) it was 32 µg/mL (≈ 64.8 µM). In addition, the MIC is 0.5 µg/mL (≈ 1.01 µM) in the experiment on Str. faecalis (Table 2, Str. faecalis) and 0.004 µg/mL (≈ 0.0081 µM) against Str. pneumoniae (Table 2, Str. pneumoniae).

`CC1(C)S[C@@H]2[C@H](N3C(=O)[C@@H](c4ccccc4)NC3(C)C)C(=O)N2[C@H]1C(=O)O` [Hetacillin, hetacillin]: the MIC against Str. pyogenes (Table 1, Str. pyogenes) was 0.004 µg/mL (≈ 0.0103 µM); in the experiment on E. Coli (Table 1, E. Coli, first line), 1 µg/mL (≈ 2.57 µM); in the experiment with E. Coli (Table 1, E. Coli, second line), 32 µg/mL (≈ 82.2 µM); with Ent. cloacae (Table 1, Ent. cloacae, first line), 32 µg/mL (≈ 82.2 µM); with Ent. cloacae (Table 1, Ent. cloacae, second line) it was 63 µg/mL (≈ 162 µM); in the experiment with K. pneumoniae (Table 1, K. pneumoniae, first line), 63 µg/mL (≈ 162 µM). For the same compound, the MIC in the experiment on K. pneumoniae (Table 1, K. pneumoniae, second line) came to 63 µg/mL (≈ 162 µM); against Pr. mirabilis (Table 1, Pr. mirabilis), 0.03 µg/mL (≈ 0.077 µM); in the experiment with Pr. morganii (Table 1, Pr. morganni), 16 µg/mL (≈ 41.1 µM); against Pr. rettgeri (Table 1, Pr. rettgeri), 8 µg/mL (≈ 20.5 µM); in the experiment with Pr. vulgaris (Table 1, Pr. vulgaris), 0.06 µg/mL (≈ 0.154 µM); with Ps. aeruginosa (Table 1, Ps. aeruginosa, first line) it was 63 µg/mL (≈ 162 µM). Further, the MIC with Ps. aeruginosa (Table 1, Ps. aeruginosa, second line) turned out to be 125 µg/mL (≈ 321 µM); in the experiment with S. aureus Meth-Res. (Table 1, S. aureus Meth-Res.), 16 µg/mL (≈ 41.1 µM); in the experiment with S. aureus Pen-Res. (Table 1, S. aureus Pen-Res.) it was 125 µg/mL (≈ 321 µM); with S. aureus (Table 1, S. aureus), 0.008 µg/mL (≈ 0.0205 µM); in the experiment with S. aureus (Table 1, S. aureus + 50% serum), 0.016 µg/mL; with Ser. marcescens (Table 1, Ser. marcescens), 16 µg/mL (≈ 41.1 µM). Further, the minimum inhibitory concentration (MIC) is 0.13 µg/mL (≈ 0.334 µM) in the experiment on Str. faecalis (Table 1, Str. faecalis) and 0.004 µg/mL (≈ 0.0103 µM) against Str. pneumoniae (Table 1, Str. pneumoniae).
